Where two headings read alike, the source gives them in different places. Marks after values point to notes of the source that are not given here. Ends that are not written are not given here.
Key:
[1] = tested on: osteoblastic cells and osteocytic cells; assay: Anti-apoptotic effects of estrogens on osteoblastic and osteocytic cells in vitro; format: cell-based
[2] = tested on: MLO-Y4 osteocytic cells; conditions: for percentage of cells stained with trypan blue (induction of apoptosis): MLO-Y4, 6 h, dexamethasone 10^−6 M, etoposide 50 μg/ml, TNF-α 1 nM; for effect on the prevention of MLO-Y4 cell apoptosis by sCT / effect on the anti-apoptotic effect of alendronate, IG-9402 and etidronate: inhibitor 30 min, 10^−6 M dexamethasone 6 h; for effect on the prevention of MLO-Y4 cell apoptosis by sCT: 5 ng/ml sCT 1 h; for effect on the anti-apoptotic effect of alendronate, IG-9402 and etidronate: 10^−7 M bisphosphonate 1 h; for inhibition of glucocorticoid-induced apoptosis: then dexamethasone 10^−6 M for 6 h
Procedure: The murine long bone-derived osteocytic cell line MLO-Y4 was provided by Dr. Lynda Bonewald (University of Texas Health Center at San Antonio, Tex.). Cells were cultured in phenol red-free αMEM supplemented with 5% FBS, 5% bovine calf serum, 100 U/ml penicillin and 100 μg/ml streptomycin. Cells were plated at 1-2×10^4 cells/cm^2 on collagen type I coated plates, as described previously (Kato, et al., 1997. J. Bone Miner. Res. 12:2014-2023). Murine calvaria cells were obtained from neonatal (3- to 6-day old) C57BL/6J mice by controlled digestion with collagenase, as previously described (Bellido, et al., 1997. Endocrinology 138:3666-3676). After isolation, cells were cultured in 10% FBS at 1-2×10^4 cells/cm^2 until 90-95% confluence. Subsequently, cells were harvested and frozen for later use. UMR-106-06 cells were cultured in phenol red-free MEM supplemented with 10% FBS, 1% non-essential aminoacids, 100 U/ml penicillin, and 100 μg/ml streptomycin (Sakagami, et al., Manolagas. 1993. J. Bone Miner. Res. 8:811-816).
Nonadherent cells were combined with adherent cells released from the culture dish using trypsin-EDTA, resuspended in medium containing serum, and collected by centrifugation. […] At least 100 cells per condition were counted.
(§1) MLO-Y4 osteocytic cells and calvaria osteoblastic cells were treated for 1 hour in the absence or presence of different BPs or sCT. Subsequently, dexamethasone, etoposide or TNF-α were added to obtain final concentrations of 10^−6 M, […], or 1 nM, respectively, and cells were incubated for additional 6 h. The effect of PD98059 (50 μM) or UO126 (1 μM) was evaluated by pretreating the cells with the inhibitors for 30 min before adding the BPs or sCT. In the experiment using the membrane permeable caspase inhibitor DEVD, cells were cultured for 1 hour with 50 nM DEVD-CHO and subsequently the pro-apoptotic agents were added to reach the final concentrations indicated above. […] At least 500 cells from fields selected by systematic random sampling were examined for each experimental condition. […] The TUNEL reaction was performed according to the manufacturer's instructions, using 0.15% CuSO4 for color enhancement. Negative controls were made by omitting the transferase from the reaction. Cells presenting brown nuclear staining were considered positive. More than 500 cells per condition were analyzed. Apoptosis of parental MLO-Y4 or calvaria cells was quantified by trypan blue staining (Jilka, et al., 1998. J. Bone Miner. Res. 13:793-802). Nonadherent cells were combined with adherent cells released from the culture dish using trypsin-EDTA, resuspended in medium containing serum, and collected by centrifugation. […] At least 100 cells per condition were counted.
MLO-Y4 cells were incubated for 1 h in vehicle or 50 nM DEVD-CHO. Subsequently, etoposide, TNF-α, or dexamethasone (Dex) were added at final concentrations of 50 μg/ml, 1 nM, or 10^−6 M, respectively, and cells were incubated for additional 6 h. Dead cells were enumerated by trypan blue uptake.
The percentage of dead cells was determined by trypan blue uptake, as in Methods and Materials. Bars represent the mean ±S.D. of three independent measurements.
Subsequently, etoposide, TNF-α, or dexarnethasone were added to reach final concentrations of 50 μg/ml, 1 nM, or 10^−6 M, respectively, and cells were cultured for 6 h, as in FIG. 1. The percentage of dead cells was determined by trypan blue uptake. Bars represent the mean ±S.D. of three independent measurements. Data were analyzed by two-way ANOVA.

[3] = tested on: osteoblastic cells derived from murine calvaria; assay: Apoptosis of osteoblastic cells derived from murine calvaria by trypan blue uptake; format: cell-based; conditions: 6 h; for induction of apoptosis of osteoblastic cells: etoposide 50 μg/ml, TNF-α, dexamethasone 10^−6 M
[4] = tested on: MLO-Y4 cells stably transduced with GFP; assay: Apoptosis by nuclear morphology of MLO-Y4 cells transduced with nuclear GFP; format: cell-based, murine; conditions: absence of dexamethasone; 10^−7 M
Procedure: Supernatants containing retroviral particles were collected 24-48 h after transfection, and used immediately to infect cell cultures. […] Subsequently, cells were exposed to the supernatants containing the viral particles once more before being trypsinized and plated at low density.
Cells presenting brown nuclear staining were considered positive. More than 500 cells per condition were analyzed. […] At least 100 cells per condition were counted.

[5] = tested on: osteoclast; conditions: cited from earlier work
[6] = tested on: ERK1/2; assay: ERK1/2 phosphorylation in MLO-Y4 cells by Western blot; format: cell-based, murine; conditions: for effect on bisphosphonate-induced phosphorylation of ERKs: 50 μM PD98059 or 1 μM UO126 pretreatment, 10^−7 M bisphosphonate 2 min
Procedure: Monolayers were washed with cold 20 mM Tris-HCl (pH 7.5), 150 mM NaCl, 1 mM sodium orthovanadate and lysed in the lysis buffer mentioned above. Insoluble material was pelleted in a microcentrifuge at 14,000×rpm for 10 mn. […] Proteins (10 μg) were separated on 7.5% SDS-polyacrylamide gels and electrotransferred to a polyvinylidene difluoride membrane. Immunoblotting was performed using a mouse monoclonal antibody recognizing tyrosine phosphorylated ERK1/2, or a rabbit polyclonal antibody recognizing total ERK1/2, followed by incubation with either an antimouse or an antirabbit antibody conjugated with horseradish peroxidase. Blots were developed using Chemiluminescence according to the manufacturer's recommendations. Quantitation of the intensity of the bands in the autoradiograms was performed using a scanner (Microtek Lab., Redondo Beach, Calif.).

[7] = tested on: osteocyte and osteoblast apoptosis in murine vertebral cancellous bone; assay: Murine model of glucocorticoid excess: TUNEL in vertebral bone sections and spinal BMD by DEXA; format: in vivo, Male Swiss Webster mice; conditions: prednisolone 2.1 mg/kg/day pellets, alendronate 0.75 mg/kg/d s.c., 56 days, mean ±SD
Source text: To adjust for the difference in the metabolic rate in mice compared to that in humans, the daily glucocorticoid dose was divided by the metabolic weight, i.e. the weight in kg to the 3/4 power (Borchard, et al., 1992. Drug dosage in laboratory animals: a handbook. CRC Press, Inc., Boca Raton, Fla. 514 pp.; Kleiber, M. 1961. The fire of life: an introduction to animal energetics. New York). […] One control group received saline injections with placebo pellet implantation while another group received saline injections plus prednisolone pellets. Dual-energy X-ray absorptiometry (DEXA) was used to determine spinal bone mineral density (spinal BMD) at the end of the 56-day experiment, as previously described (Weinstein et al., 1998. J. Clin. Invest. 102:274-282).
Sections of vertebral bone (L1 to L5) were mounted on silane-coated glass slides (Scientific Device Lab, Inc., Des Plains, Ill.), deplasticized and incubated in 10 mM citrate buffer, pH 7.6, in a microwave oven at 98° C. for 5 minutes (Jilka, et al., 1998. J. Bone Miner. Res. 13:793-802). Slides were then incubated with 0.5% pepsin for 30 minutes at 37° C. Apoptotic cells were detected by the TUNEL reaction as described above using 0.15% CuSO4 for color enhancement of the diaminobenzidine in sections counterstained with 1% methyl green. The TUNEL reaction is noted within cell nuclei and the cells whose nuclei were clearly brown from the streptavidin-horse radish peroxidase conjugate instead of blue-green from the methyl green were interpreted as positive. Plastic-embledded sections of weaned rat mammary tissue were used as a positive control. Negative controls were made by omitting the transferase from the TUNEL reaction. Morphological changes characteristic of apoptosis were carefully examined to minimize ambiguity regarding the interpretation of results. […] Osteocytes were identified inside lacunae in mineralized bone (FIG. 11A). Osteoblasts were identified as cuboidal cells lining the osteoid-covered trabecular perimeter (FIG. 11B).

[8] = tested on: osteocytic MLO-Y4 cells; assay: TUNEL reaction in MLO-Y4 cells; format: cell-based, murine; conditions: 10^−7 M alendronate 1 h and/or 10^−6 M dexamethasone 6 h
Procedure: as §1

For `C[C@]12CC[C@@H]3c4ccc(O)cc4CC[C@H]3[C@@H]1CC[C@H]2O` [17α-estradiol], the “anti-apoptotic effects on osteoblastic cells in vitro and osteocytic cells” value [1] was “potent anti-apoptotic effects”.

For `C[C@]12CC[C@@H]3c4ccc(O)cc4CC[C@H]3[C@@H]1CC[C@@H]2O` [17β-estradiol], the “anti-apoptotic effects on osteoblastic cells in vitro and osteocytic cells” value [1] was “potent anti-apoptotic effects”.

For `C[C@]12CC[C@@H]3c4ccc(O)cc4C[C@@H](CCCCCCCCC[S+]([O-])CCCC(F)(F)C(F)(F)F)[C@H]3[C@@H]1CC[C@@H]2O` (some centres unmarked) [ICI 182780], the “effect on the anti-apoptotic effects of the estrogen compounds” value [1] was “diminished”.

With `C[C@@]12CCC[C@H]1[C@@H]1CCc3cc(O)ccc3[C@H]1CC2` [estratriene-3-ol] the “anti-apoptotic effects on osteoblastic cells in vitro and osteocytic cells” value [1] was “potent anti-apoptotic effects”.

In the case of `COc1cc([C@@H]2c3cc4c(cc3[C@@H](O[C@@H]3O[C@@H]5CO[C@@H](C)O[C@H]5[C@H](O)[C@H]3O)[C@H]3COC(=O)[C@H]23)OCO4)cc(OC)c1O` [etoposide], the “percentage of cells stained with trypan blue (induction of apoptosis)” value [2] is reported as “A similar effect was obtained” and the “induction of apoptosis of osteoblastic cells” value [3] is reported as “induced apoptosis”.

With `CN(C)CCC(N)(P(=O)(O)O)P(=O)(O)O` [IG-9402, 1-amino-3-(N,N-dimethylamino)-propyliden-1,1-bisphosphonic acid] the “prevention of apoptosis induced by etoposide or TNF-α” value ([2]; 10^−7 M, 1 h pretreatment, 6 h) was “prevented apoptosis”, the “cell viability in the absence of pro-apoptotic stimuli” value ([2]; 10^−10 to 10^−3 M) was “did not affect cell viability” and the “inhibitory effect on glucocorticoid-induced apoptosis at high concentrations” value ([2]; concentrations higher than 10^−6 M) was “persisted at high concentrations”. The “proportion of cells exhibiting chromatin condensation and/or nuclear fragmentation versus untreated” value [4] was “no significant differences”, the “antiresorptive activity / effect on osteoclast” value (“antiresorptive activity / effect” below) [5] was “lacks anti-resorptive activity” and the “potency ratio to affect the osteoclast, relative to pamidronate” value [5] was “⅙”. The “antiresorptive activity / effect” value ([5]; listed as IG9204) was “do not block osteoclast activity at all”, the “antiresorptive activity / effect” value ([5]; listed as IG9402) was “devoid of any antiresorptive activity” and the “inhibition of apoptosis of osteoblastic cells induced by dexamethasone, TNF-α and etoposide” value ([3]; 10^−7 M, 1 h pretreatment) was “inhibited apoptosis”. For the same molecule, the “earliest time at which increased ERK phosphorylation was observed” value ([6]; 10^−7 M) was 0.5 min and the “phosphorylation of ERK 1 and 2” value ([6]; 10^−7 M) was “rapid and transient increase”.

With `N#CC(=C(/N)Sc1ccccc1N)/C(C#N)=C(\N)Sc1ccccc1N` [U0126] the “effect on the prevention of MLO-Y4 cell apoptosis by sCT” value [2] was “abolished”, the “effect on the anti-apoptotic effect of alendronate, IG-9402 and etidronate” value [2] was “abrogated the anti-apoptotic effect” and the “effect on bisphosphonate-induced phosphorylation of ERKs” value [6] was “abolished”.

In the case of `C[C@]12C=CC(=O)C=C1CC[C@@H]1[C@@H]2[C@@H](O)C[C@@]2(C)[C@H]1CC[C@]2(O)C(=O)CO` [prednisolone], the “Spinal BMD (% change)” value ([7]; DEXA) is reported as −12.48 ± 3.77 % change, the “Apoptotic osteoblasts (%)” value ([7]; vertebral cancellous bone) is reported as 19.79 ± 5.17 % and the “Apoptotic osteocytes (%)” value ([7]; vertebral cancellous bone) is reported as 2.37 ± 0.87%.

In the case of `C[C@@H]1C[C@H]2[C@@H]3CCC4=CC(=O)C=C[C@]4(C)[C@@]3(F)[C@@H](O)C[C@]2(C)[C@@]1(O)C(=O)CO` [dexamethasone], the “concentrations giving pro-apoptotic effects” value ([2]; MLO-Y4 cells) is reported as 10^−7-10^−5 M, the “% of TUNEL positive cells” value [8] is reported as 11.87* % and the “Number of TUNEL positive cells” value [8] is reported as 66. The “number of TUNEL negative cells” value [8] was 490.

With `COc1cccc(-c2cc(=O)c3ccccc3o2)c1N` [PD98059] the “effect on the prevention of MLO-Y4 cell apoptosis by sCT” value [2] was “abolished”, the “effect on the anti-apoptotic effect of alendronate, IG-9402 and etidronate” value [2] was “abrogated the anti-apoptotic effect” and the “effect on bisphosphonate-induced phosphorylation of ERKs” value [6] was “abolished”.

For “Asp-Glu-Val-Asp-aldehide (DEVD-aldehyde) [DEVD-CHO]”, the “prevention of the increase in cell membrane permeability detected by trypan blue” value ([2]; 50 nM DEVD-CHO 1 h before pro-apoptotic agents) was “prevented”.

With `NCCC(O)(P(=O)(O)O)P(=O)(O)O` [pamidronate] the “inhibition of glucocorticoid-induced apoptosis” value ([2]; 1 h pretreatment) was “Comparable responses” and the “proportion of cells exhibiting chromatin condensation and/or nuclear fragmentation versus untreated” value [4] was “no significant differences”.

For `CN(C)CCC(O)(P(=O)(O)O)P(=O)(O)O` [olpadronate], the “inhibition of glucocorticoid-induced apoptosis” value ([2]; 1 h pretreatment) is given as “Comparable responses”, the “proportion of cells exhibiting chromatin condensation and/or nuclear fragmentation versus untreated” value [4] is given as “no significant differences” and the “antiresorptive activity / effect” value [5] is given as “effective inhibitor of the osteoclast and of bone resorption”.

B1: TNF-α: Recombinant murine TNF-α, an activator of death receptors (protein, UniProt P06804 80-235, looked up)
Tumor necrosis factor, …: LRSSSQNSSDKPVAHVVANHQVEEQLEWLSQRANALLANGMDLKDNQLVVPADGLYLVYSQVLFKGQGCPDYVLLTHTVSRFAISYQEKVNLLSAVKSPCPKDTPEGAELKPWYEPIYLGGVFQLEKGDQLSAEVNLPKYLDFAESGQVYFGVIAL
modifications: Tumor necrosis factor, soluble form
With B1 the “percentage of cells stained with trypan blue (induction of apoptosis)” value [2] was “A similar effect was obtained” and the “induction of apoptosis of osteoblastic cells” value [3] was “induced apoptosis”.

Reference: patent US6416737B1, “Increasing bone strength with selected bisphosphonates” (Board of Trustees of the University of Arkansas, priority 1998, dated 2002)
